Where two headings read alike, the source gives them in different places.
Key:
[1] = tested on: intracellular M. tuberculosis; design: method as in PMID 35046812; conditions: M. tuberculosis in RAW 264.7, high-content assay; primary screen hits; read-out: Intracellular TB IC50; cited from earlier work
macrophages (RAW 264.7) [2] = tested on: macrophages (RAW 264.7); design: method as in PMID 35046812; conditions: RAW 264.7 infected macrophages, high-content assay; primary screen hits; read-out: Macrophage IC50; cited from earlier work
HepG2 cells [3] = tested on: HepG2 cells; design: method as in PMID 35046812; conditions: standard culture medium; primary screen hits; cited from earlier work
[4] = tested on: extracellular M. tuberculosis; design: method as in PMID 35046812; conditions: standard culture medium; primary screen hits; read-out: Extracellular TB IC50; cited from earlier work
HepG2 cells [5] = experiment: cells; type: cell-based, human; conditions: 72 h, CellTiter-Glo; for IC50: Homo sapiens, HepG2
[6] = tested on: extracellular M. tuberculosis; experiment: microbe, parasite or virus in culture; type: cell-based; conditions: Mycobacterium tuberculosis
macrophages (RAW 264.7) [7] = experiment: cells; type: cell-based, murine; conditions: RAW 264.7 infected macrophages, high-content assay, 72 h; for IC50: Mus musculus, RAW264.7, read-out: Macrophage IC50
[8] = tested on: intracellular M. tuberculosis; experiment: microbe, parasite or virus in culture; type: cell-based, Mycobacterium tuberculosis; conditions: for IC50 / Intracellular TB IC50: M. tuberculosis in RAW 264.7, high-content assay, 72 h; for IC50: read-out: Intracellular TB IC50; for selectivity index (SI): cytotoxicity IC50 over intracellular M. tuberculosis IC50; for fold difference between extracellular and intracellular IC50: extracellular versus intracellular M. tuberculosis
[9] = tested on: extracellular M. tuberculosis; experiment: microbe, parasite or virus in culture; type: cell-based, Mycobacterium tuberculosis; conditions: for IC50: Mycobacterium tuberculosis, 168 h, read-out: Cholesterol IC50; for Fold-change: glucose IC50 versus cholesterol IC50
[10] = tested on: replicating M. tuberculosis; experiment: Kill kinetics against replicating M. tuberculosis; type: cell-based, Mycobacterium tuberculosis; conditions: up to 100 μM, over 21 days, aerobic culture in 7H9-Tw-OADC
[11] = 120 h, read-out: Extracellular TB IC50
[12] = Mycobacterium tuberculosis, RAW264.7, 72 h
[13] = glucose as carbon source, read-out: Glucose IC50

SMILES | IC50 (HepG2 cells [5]) [µM] | IC50 [6, 11] [µM] | IC50 (macrophages (RAW 264.7) [7]) [µM] | IC50 [8, 12] [µM] | also measured
CCOc1ccc(NC(=S)Nc2ccccc2)cc1 [Compound 1] |  |  |  |  | IC50 [1]: 400 nM; IC50 (macrophages (RAW 264.7) [2]): > 100 µM; IC50 (HepG2 cells [3]): > 100 µM; IC50 [4]: > 20 µM
CCOc1ccc(NC(=S)Nc2ccc(C)c(C#N)c2)cc1 [Compound 2] |  |  |  |  | IC50 [1]: 300 nM; IC50 (macrophages (RAW 264.7) [2]): 47 µM; IC50 (HepG2 cells [3]): 64 µM; IC50 [4]: 9.5 µM
O=C(Nc1ccc(Cl)cc1)Nc1ccc(Nc2ccccc2)cc1 [Compound 3] |  |  |  |  | IC50 (macrophages (RAW 264.7) [2]): 68 µM; IC50 (HepG2 cells [3]): > 100 µM; IC50 [4]: > 20 µM
O=C(Nc1ccc(C(F)(F)F)cc1)Nc1cccc(Cl)c1 [Compound 4] |  |  |  |  | IC50 [1]: 700 nM; IC50 (macrophages (RAW 264.7) [2]): 1.8 µM; IC50 (HepG2 cells [3]): 5.6 µM; IC50 [4]: 15 µM
Cc1cc(C)nc(NC(=N)Nc2ccc(Br)cc2)n1 [Compound 5] |  |  |  |  | IC50 [1]: 1300 nM; IC50 (macrophages (RAW 264.7) [2]): 18 µM; IC50 (HepG2 cells [3]): 22 µM; IC50 [4]: 8.2 µM
Fc1cccc(NC(=S)Nc2ccccc2C(F)(F)F)c1 [Compound 7] | 86 | > 200 | 53 | > 100 | 
CCOc1ccc(NC(=S)NC)cc1 [Compound 8] | > 100 | 80 | > 100 | < 20 | IC50 [8]: 10 µM
S=C(Nc1ccccc1)NC1CCCCC1 [Compound 9] | > 100 | 130 | > 100 | > 100 | Intracellular TB IC50 [8]: loss of intracellular activity
CNC(=S)Nc1ccccc1 [Compound 10] | > 100 | > 200 | > 100 | > 100 | 
CCOc1ccc(NC(=S)Nc2ccccc2C(=O)OC)cc1 [Compound 11] | > 100 | > 200 | 46 |  | 
COc1ccc(NC(=S)Nc2ccccc2C)cc1 [Compound 12] | > 100 | > 200 | > 100 | < 20 | IC50 [8]: 19 µM
COc1ccc(NC(=S)Nc2ccc(C(N)=O)cc2)cc1 [Compound 13] | > 100 | > 200 | > 100 | > 100 | Intracellular TB IC50 [8]: inactive
CCOc1ccc(NC(=S)Nc2ccc(OC)cc2)cc1 [Compound 14] | > 100 | 7.2 | > 100 |  | IC50 [6, 13]: 7.2 µM; IC50 [9]: 15 µM; Fold-change [9]: 0.5; culture viability (CFU) in kill kinetics [10]: small decrease in viable bacteria at day 21 at the highest concentration; selectivity index (SI) [8]: > 588; fold difference between extracellular and intracellular IC50 [8]: > 40 fold
COc1ccc(NC(=S)Nc2ccccc2Cl)cc1 [Compound 15] | > 100 | > 200 | > 100 | < 20 | IC50 [8]: 14 µM
CCOc1ccc2nc(NC(=S)Nc3ccccc3)sc2c1 [Compound 16] | 73 | 26 | 28 | < 1 | IC50 [6, 13]: 26 µM; IC50 [9]: 6.6 µM; Fold-change [9]: 3.9; IC50 [8]: 0.75 µM
S=C(Nc1ccccc1)Nc1ccc(Cl)cc1 [Compound 17] | 91 | 104 | 42 | < 20 | IC50 [8]: 16 µM
COc1ccc(NC(=S)Nc2ccccc2C(F)(F)F)cc1OC [Compound 18] | > 100 | > 200 | > 100 | > 100 | Intracellular TB IC50 [8]: inactive
COc1ccc(NC(=S)Nc2ccc(F)cc2)cc1 [Compound 20] | > 100 | 91 | > 100 | 9.2 | 
CCCc1nnc(NC(=S)Nc2ccccc2)s1 [Compound 21] | > 100 | 14.5 |  |  | selectivity index (SI) [8]: > 200

SMILES | IC50 (HepG2 cells [5]) [µM] | IC50 [6, 11] [µM] | IC50 (macrophages (RAW 264.7) [7]) [µM] | IC50 [8, 12] [µM] | also measured
CC(C)(C)c1nnc(NC(=S)Nc2ccccc2)s1 [Compound 22] | > 99 | 11 | > 100 | < 1 | IC50 [6, 13]: 11 µM; IC50 [9]: 5.7 µM; Fold-change [9]: 1.9; IC50 [8]: 0.51 µM; selectivity index (SI) [8]: > 200; fold difference between extracellular and intracellular IC50 [8]: > 20 fold
FC(F)(F)c1cccc(NC(=S)Nc2cccnc2)c1 [Compound 23] | 62 | 125 | 30 |  | Macrophage IC50 (macrophages (RAW 264.7) [7]): cytotoxicity to macrophages
COc1ccc(NC(=S)Nc2ccc(Br)cc2)cc1 [Compound 24] | > 100 | 16 | 72 | 2.1 | fold increase in potency ([8]; intracellular IC50, bromine replacing fluorine): 5 fold
COc1cccc(NC(=S)Nc2cccc(C(F)(F)F)c2)c1 [Compound 25] | 24 | 63 | 17 | 9.6 | 
FC(F)(F)c1cccc(NC(=S)NCCc2ccc(Cl)cc2)c1 [Compound 26] | 23 | 30 | 9.3 |  | 
O=C(NC(=S)Nc1ccc2oc(-c3ccccc3)nc2c1)c1ccccc1 [Compound 27] | > 100 | > 200 | 80 |  | selectivity index (SI) [8]: > 200; fold difference between extracellular and intracellular IC50 [8]: > 500 fold
COc1ccc(C(F)(F)F)cc1NC(=O)Nc1cccc(Cl)c1 [Compound 28] | 12 | 25 | 3 |  | 
COc1ccc2nc(NC(=O)Nc3ccc(Cl)cc3)sc2c1 [Compound 29] | > 100 | > 200 | 56 |  | 
COc1ccc(NC(=O)Nc2nc3ccccc3s2)cc1 [Compound 30] | 54 | > 200 | 52 |  | 
CNC(=O)Nc1ccc(Br)cc1 [Compound 31] | > 100 | > 200 | > 100 | 64 | 
O=C(Nc1ccccc1)Nc1ccc(Cl)cc1 [Compound 33] | > 100 | > 200 | > 100 | > 100 | 
CC(C)(C)c1nnc(NC(=O)Nc2ccc(Cl)cc2)s1 [Compound 34] | > 100 | > 200 | > 100 | 84 | Intracellular TB IC50 [8]: lost activity
O=C(Nc1cccc(Cl)c1)NC1CCCCC1 [Compound 35] | > 100 | 28 | > 100 | 4.5 | HepG2 IC50 (HepG2 cells [5]): no cytotoxicity
Cc1nnc(NC(=O)Nc2ccccc2)s1 [Compound 36] | > 100 | > 200 | > 100 | > 100 | 
COc1cc(NC(=S)Nc2ccc(C(F)(F)F)cc2)cc(OC)c1 [Compound 37] | 49 | > 200 | 29 |  | 
CC(C)c1ccc(NC(=O)Nc2ccccc2)cc1 [Compound 38] | 55 | > 200 | 85 | > 100 | 
N#Cc1ccc(NC(=O)Nc2ccc(Cl)cc2)cc1 [Compound 39] | 6.5 | 11 | 3 |  | 
COc1cccc(NC(=O)Nc2ccc(C(F)(F)F)cc2)c1 [Compound 40] | 11 | 31 | 5.2 |  | 
